# Data published in US6489315B1, “Cyclic compounds, their production and use” (Takeda Chemical Industries, Ltd., priority 1995, dated 2002).
row,Structure (SMILES),melting point
1,"Cc1cnc2c(c1-c1ccccc1)C(=O)N(Cc1cc(C(F)(F)F)cc(C(F)(F)F)c1)CCN(C)C2=O [Example 50, 6-[3,5-Bis(trifluoromethyl)benzyl]-5,6,7,8,9,10-hexahydro-3,9-dimethyl-5,10-dioxo-4-phenylpyrido(2,3-f][1,4]diazocine]",203 to 205 °C
2,"CN1CCN(Cc2cc(C(F)(F)F)cc(C(F)(F)F)c2)C(=O)c2c(-c3ccccc3)ccnc2C1=O [Example 51, 6-[3,5-Bis(trifluoromethyl)benzyl]-5,6,7,8,9,10-hexahydro-9-methyl-5,10-dioxo-4-phenylpyrido[2,3-f][1,4]diazocine]",167 to 169 °C
3,"Cc1cnc2c(c1-c1ccccc1)C(=O)N(Cc1ccccc1)CCN(C)C2=O [Example 52, 6-Benzyl-5,6,7,8,9,10-hexahydro-3,9-dimethyl-5,10-dioxo-4-phenylpyrido[2,3-f][1,4]diazocine]",183 to 184 °C
4,"CCN1CCN(Cc2cc(C(F)(F)F)cc(C(F)(F)F)c2)C(=O)c2c(ncc(C)c2-c2ccccc2)C1=O [Example 53, 6-[3,5-Bis(trifluoromethyl)benzyl]-9-ethyl-5,6,7,8,9,10-hexahydro-3-methyl-5,10-dioxo-4-phenylpyrido[2,3-f][1,4]diazocine]",228 to 229 °C
5,"Cc1cnc2c(c1-c1ccccc1)C(=O)N(Cc1cc(C(F)(F)F)cc(C(F)(F)F)c1)CCCN(C)C2=O [Example 54, 6-[3,5-Bis(trifluoromethyl)benzyl]-6,7,8,9,10,11-hexahydro-3,10-dimethyl-5,11-dioxo-4-phenyl-5H-pyrido[2,3-g][1,5]diazonine]",247 to 249 °C
6,"CNC(=O)c1cc(-c2ccccc2)c2c(n1)OCCN(Cc1cc(C(F)(F)F)cc(C(F)(F)F)c1)C2=O [Example 58, 4-[3,5-Bis(trifluoromethyl)benzyl]-N-methyl-2,3,4,5-tetrahydro-5-oxo-6-phenylpyrido[3,2-f][1,4]oxazepine-8-carboxamide]",145 °C (dec.)
7,"CN(C)C(=O)c1cc(-c2ccccc2)c2c(n1)OCCN(Cc1cc(C(F)(F)F)cc(C(F)(F)F)c1)C2=O [Example 59, 4-[3,5-Bis(trifluoromethyl)benzyl]-N,N-dimethyl-2,3,4,5-tetrahydro-5-oxo-6-phenylpyrido[3,2-f][1,4]oxazepine-8-carboxamide]",235 to 236 °C
8,"CCCCNC(=O)c1cc(-c2ccccc2)c2c(n1)OCCN(Cc1cc(C(F)(F)F)cc(C(F)(F)F)c1)C2=O [Example 60, 4-[3,5-Bis(trifluoromethyl)benzyl]-N-n-butyl-2,3,4,5-tetrahydro-5-oxo-6-phenylpyrido[3,2-f][1,4]oxazepine-8-carboxamide]",194 to 196 °C
9,"O=C(c1cc(-c2ccccc2)c2c(n1)OCCN(Cc1cc(C(F)(F)F)cc(C(F)(F)F)c1)C2=O)N1CCCCC1 [Example 61, 4-[3,5-Bis(trifluoromethyl)benzyl]-2,3,4,5-tetrahydro-5-oxo-6-phenyl-8-piperidinocarbonylpyrido[3,2-f][1,4]oxazepine]",218 to 220 °C
10,"COc1cc(CN2CCOc3nccc(-c4ccccc4)c3C2=O)cc(OC)c1OC [Example 64, 2,3,4,5-Tetrahydro-5-oxo-6-phenyl-4-(3,4,5-trimethoxybenzyl)pyrido[3,2-f][1,4]oxazepine]",177 to 179 °C
11,"O=C1c2c(-c3ccccc3)ccnc2OCCN1Cc1ccc(Cl)c(Cl)c1 [Example 65, 4-(3,4-Dichlorobenzyl)-2,3,4,5-tetrahydro-5-oxo-6-phenylpyrido[3,2-f][1,4]oxazepine]",189 to 192 °C
12,"COc1ccc(CN2CCOc3nccc(-c4ccccc4)c3C2=O)cc1OC [Example 66, 4-(3,4-Dimethoxybenzyl)-2,3,4,5-tetrahydro-5-oxo-6-phenylpyrido[3,2-f][1,4]oxazepine]",175 to 176 °C
13,"O=C1c2c(-c3ccccc3)ccnc2OCCN1Cc1ccccc1 [Example 67, 4-Benzyl-2,3,4,5-tetrahydro-5-oxo-6-phenylpyrido[3,2-f][1,4]oxazepine]",209 to 211 °C
14,"C[C@@H]1COc2nccc(-c3ccccc3)c2C(=O)N(Cc2ccccc2)C1 [Example 69, (S)-5-Benzyl-2,3,4,5-tetrahydro-3-methyl-6-oxo-7-phenyl-6H-pyrido[2,3-b][1,5]oxazocine]",139 to 141 °C
15,"C[C@H]1COc2nccc(-c3ccccc3)c2C(=O)N(Cc2ccccc2)C1 [Example 70, (R)-5-Benzyl-2,3,4,5-tetrahydro-3-methyl-6-oxo-7-phenyl-6H-pyrido[2,3-b][1,5]oxazocine]",139 to 140 °C
16,"C[C@@H]1COc2nccc(-c3ccccc3)c2C(=O)N(Cc2cc(C(F)(F)F)cc(C(F)(F)F)c2)C1 [Example 71, (S)-5-[3,5-Bis(trifluoromethyl)benzyl]-2,3,4,5-tetrahydro-3-methyl-6-oxo-7-phenyl-6H-pyrido[2,3-b][1,5]oxazocine]",142 to 143 °C
17,"C[C@H]1COc2nccc(-c3ccccc3)c2C(=O)N(Cc2cc(C(F)(F)F)cc(C(F)(F)F)c2)C1 [Example 72, (R)-5-[3,5-Bis(trifluoromethyl)benzyl]-2,3,4,5-tetrahydro-3-methyl-6-oxo-7-phenyl-6H-pyrido[2,3-b][1,5]oxazocine]",142 to 143 °C
18,"Cc1ccc(-c2ccnc3c2C(=O)N(Cc2ccccc2)CCO3)cc1 [Example 79, 4-Benzyl-2,3,4,5-tetrahydro-5-oxo-6-(4-methylphenyl)pyrido(3,2-f][1,4]oxazepine]",203 to 204 °C
19,"Cc1ccc(-c2ccnc3c2C(=O)N(Cc2cc(C(F)(F)F)cc(C(F)(F)F)c2)CCO3)cc1 [Example 80, 4-[3,5-Bis(trifluoromethyl)benzyl]2,3,4,5-tetrahydro-5-oxo-6-(4-methylphenyl)pyrido[3,2-f][1,4]oxazepine]",212 to 213 °C
20,"Cc1ccc(-c2ccnc3c2C(=O)N(Cc2ccccc2)C[C@H](C)CO3)cc1 [Example 81, (S)-5-Benzyl-2,3,4,5-tetrahydro-3-methyl-7-(4-methylphenyl)-6-oxo-6H-pyrido[2,3-b][1,5]oxazocine]",148 to 149 °C
21,"Cc1ccc(-c2ccnc3c2C(=O)N(Cc2cc(C(F)(F)F)cc(C(F)(F)F)c2)C[C@H](C)CO3)cc1 [Example 82, (S)-5-[3,5-Bis(trifluoromethyl)benzyl]2,3,4,5-tetrahydro-3-methyl-7-(4-methylphenyl)-6-oxo-6H-pyrido[2,3-b][1,5]oxazocine]",159 to 160 °C
